Source: article PMC9578392, “Safety, Tolerability, and Pharmacokinetics of the Novel Antiviral Agent Ensitrelvir Fumaric Acid, a SARS-CoV-2 3CL Protease Inhibitor, in Healthy Adults” (Antimicrobial Agents and Chemotherapy, 2022)

Experiment: Treatment-emergent adverse events, single dose (part 1)
Type: in vivo, human
Description: In part 1, Japanese participants were randomized to receive placebo or single dose of ensitrelvir (20, 70, 250, 500, 1,000, and 2,000 mg given to cohorts A, B, C, D, E, and J, respectively), suspended in 0.5% methylcellulose, in the fasted state. Additionally, in cohort C, the effect of food on the pharmacokinetics of ensitrelvir was investigated in a 2-group, 2-period crossover design by administering placebo or ensitrelvir (250 mg) in the fasted or fed (high-fat/high-calorie) state. In part 2, Japanese participants were randomized to receive placebo or multiple doses of ensitrelvir, suspended in 0.5% methylcellulose. The multiple-dose regimens were as follows: once-daily doses of ensitrelvir 375 mg on day 1 and 125 mg on days 2 to 5 (cohort F), or 750 mg on day 1 and 250 mg on days 2 to 6 (cohort G) in the fasted state. White participants were randomized to receive placebo or multiple doses of ensitrelvir. The multiple-dose regimens were as follows: once-daily doses of ensitrelvir 375 mg on day 1 and 125 mg on days 2 to 5 (cohort H). Each cohort included 11 participants. In cohort G, the effect of ensitrelvir on the pharmacokinetics of midazolam (syrup) was evaluated in an open label self-controlled crossover design. Midazolam 2 mg alone was administered 2 days prior to initiating ensitrelvir administration (on day −2) and midazolam was coadministered on day 6 with placebo or ensitrelvir in the fasted state to participants following once-daily doses for 5 days of placebo (days 1 to 5) or ensitrelvir (750 mg on day 1 and 250 mg on days 2–5).
The nature, frequency, and severity of TEAEs were evaluated and recorded.

[1] = Cohort A 20 mg single dose, n = 6
[2] = Cohort B 70 mg single dose, n = 6
[3] = Cohort C (fasted) 250 mg single dose, n = 8
[4] = Cohort D 500 mg single dose, n = 6
[5] = Cohort E 1,000 mg single dose, n = 6
[6] = Cohort J 2,000 mg single dose, n = 6

SMILES: Cn1cnc(Cn2c(=O)[nH]/c(=N\c3cc4cn(C)nc4cc3Cl)n(Cc3cc(F)c(F)cc3F)c2=O)n1 [Ensitrelvir, ensitrelvir fumaric acid]
- Abdominal pain, Events [1]: 0
- Abdominal pain, n (%) [1]: 0
- Chills, Events [1]: 0
- Chills, n (%) [1]: 0
- Feces soft, Events [1]: 0
- Feces soft, n (%) [1]: 0
- Gastrointestinal disorders, Events [1]: 0
- Gastrointestinal disorders, n (%) [1]: 0
- General disorders and administration site conditions, Events [1]: 0
- General disorders and administration site conditions, n (%) [1]: 0
- Headache, Events [1]: 0
- Headache, n (%) [1]: 0
- High density lipoprotein cholesterol decreased, Events [1]: 0
- High density lipoprotein cholesterol decreased, n (%) [1]: 0
- Investigations, Events [1]: 0
- Investigations, n (%) [1]: 0
- Nausea, Events [1]: 0
- Nausea, n (%) [1]: 0
- Nervous system disorders, Events [1]: 0
- Nervous system disorders, n (%) [1]: 0
- Participants with any TEAE, Events [1]: 0
- Participants with any TEAE, n (%) [1]: 0
- Vomiting, Events [1]: 0
- Vomiting, n (%) [1]: 0
- Abdominal pain, Events [2]: 1
- Abdominal pain, n (%) [2]: 1 (16.7)
- Chills, Events [2]: 0
- Chills, n (%) [2]: 0
- Feces soft, Events [2]: 0
- Feces soft, n (%) [2]: 0
- Gastrointestinal disorders, Events [2]: 1
- Gastrointestinal disorders, n (%) [2]: 1 (16.7)
- General disorders and administration site conditions, Events [2]: 0
- General disorders and administration site conditions, n (%) [2]: 0
- Headache, Events [2]: 1
- Headache, n (%) [2]: 1 (16.7)
- High density lipoprotein cholesterol decreased, Events [2]: 0
- High density lipoprotein cholesterol decreased, n (%) [2]: 0
- Investigations, Events [2]: 0
- Investigations, n (%) [2]: 0
- Nausea, Events [2]: 0
- Nausea, n (%) [2]: 0
- Nervous system disorders, Events [2]: 1
- Nervous system disorders, n (%) [2]: 1 (16.7)
- Participants with any TEAE, Events [2]: 2
- Participants with any TEAE, n (%) [2]: 2 (33.3)
- Vomiting, Events [2]: 0
- Vomiting, n (%) [2]: 0
- Abdominal pain, Events [3]: 0
- Abdominal pain, n (%) [3]: 0
- Chills, Events [3]: 0
- Chills, n (%) [3]: 0
- Feces soft, Events [3]: 0
- Feces soft, n (%) [3]: 0
- Gastrointestinal disorders, Events [3]: 0
- Gastrointestinal disorders, n (%) [3]: 0
- General disorders and administration site conditions, Events [3]: 0
- General disorders and administration site conditions, n (%) [3]: 0
- Headache, Events [3]: 0
- Headache, n (%) [3]: 0
- High density lipoprotein cholesterol decreased, Events [3]: 0
- High density lipoprotein cholesterol decreased, n (%) [3]: 0
- Investigations, Events [3]: 0
- Investigations, n (%) [3]: 0
- Nausea, Events [3]: 0
- Nausea, n (%) [3]: 0
- Nervous system disorders, Events [3]: 0
- Nervous system disorders, n (%) [3]: 0
- Participants with any TEAE, Events [3]: 0
- Participants with any TEAE, n (%) [3]: 0
- Vomiting, Events [3]: 0
- Vomiting, n (%) [3]: 0
- Abdominal pain, Events [4]: 0
- Abdominal pain, n (%) [4]: 0
- Chills, Events [4]: 0
- Chills, n (%) [4]: 0
- Feces soft, Events [4]: 0
- Feces soft, n (%) [4]: 0
- Gastrointestinal disorders, Events [4]: 0
- Gastrointestinal disorders, n (%) [4]: 0
- General disorders and administration site conditions, Events [4]: 0
- General disorders and administration site conditions, n (%) [4]: 0
- Headache, Events [4]: 0
- Headache, n (%) [4]: 0
- High density lipoprotein cholesterol decreased, Events [4]: 0
- High density lipoprotein cholesterol decreased, n (%) [4]: 0
- Investigations, Events [4]: 0
- Investigations, n (%) [4]: 0
- Nausea, Events [4]: 0
- Nausea, n (%) [4]: 0
- Nervous system disorders, Events [4]: 0
- Nervous system disorders, n (%) [4]: 0
- Participants with any TEAE, Events [4]: 0
- Participants with any TEAE, n (%) [4]: 0
- Vomiting, Events [4]: 0
- Vomiting, n (%) [4]: 0
- Abdominal pain, Events [5]: 0
- Abdominal pain, n (%) [5]: 0
- Chills, Events [5]: 0
- Chills, n (%) [5]: 0
- Feces soft, Events [5]: 0
- Feces soft, n (%) [5]: 0
- Gastrointestinal disorders, Events [5]: 0
- Gastrointestinal disorders, n (%) [5]: 0
- General disorders and administration site conditions, Events [5]: 0
- General disorders and administration site conditions, n (%) [5]: 0
- Headache, Events [5]: 0
- Headache, n (%) [5]: 0
- High density lipoprotein cholesterol decreased, Events [5]: 6
- High density lipoprotein cholesterol decreased, n (%) [5]: 6 (100)
- Investigations, Events [5]: 6
- Investigations, n (%) [5]: 6 (100)
- Nausea, Events [5]: 0
- Nausea, n (%) [5]: 0
- Nervous system disorders, Events [5]: 0
- Nervous system disorders, n (%) [5]: 0
- Participants with any TEAE, Events [5]: 6
- Participants with any TEAE, n (%) [5]: 6 (100)
- Vomiting, Events [5]: 0
- Vomiting, n (%) [5]: 0
- High density lipoprotein cholesterol decreased, n (%) (Cohort E 1,000 mg single dose, n = 6, listed as ensitrelvir): 6/6
- Abdominal pain, Events [6]: 0
- Abdominal pain, n (%) [6]: 0
- Chills, Events [6]: 1
- Chills, n (%) [6]: 1 (16.7)
- Feces soft, Events [6]: 1
- Feces soft, n (%) [6]: 1 (16.7)
- Gastrointestinal disorders, Events [6]: 3
- Gastrointestinal disorders, n (%) [6]: 1 (16.7)
- General disorders and administration site conditions, Events [6]: 1
- General disorders and administration site conditions, n (%) [6]: 1 (16.7)
- Headache, Events [6]: 1
- Headache, n (%) [6]: 1 (16.7)
- High density lipoprotein cholesterol decreased, Events [6]: 6
- High density lipoprotein cholesterol decreased, n (%) [6]: 6 (100)
- Investigations, Events [6]: 6
- Investigations, n (%) [6]: 6 (100)
- Nausea, Events [6]: 1
- Nausea, n (%) [6]: 1 (16.7)
- Nervous system disorders, Events [6]: 1
- Nervous system disorders, n (%) [6]: 1 (16.7)
- Participants with any TEAE, Events [6]: 11
- Participants with any TEAE, n (%) [6]: 6 (100)
- Vomiting, Events [6]: 1
- Vomiting, n (%) [6]: 1 (16.7)
- High density lipoprotein cholesterol decreased, n (%) (Cohort J 2,000 mg single dose, n = 6, listed as ensitrelvir): 6/6
- overall tolerability (single and multiple doses, all doses tested, healthy participants): well tolerated across all doses tested
- severity of adverse events (single dose 20–2,000 mg, cohorts A–E and J): a All adverse events were mild.
